# Legend:
# [1] = tested on: human neutrophils; assay: Apoptosis rate of isolated human neutrophil granulocytes (sub-G1 cells, propidium iodide, flow cytometry); type: cell-based; details: for prevention of the reduction of the apoptosis rate caused by CNP with or without budenoside / background apoptosis rate: Experiment 7, 1 mM test substance, 16 h; for prevention of the reduction of the apoptosis rate caused by CNP with or without budenoside: young volunteers; for background apoptosis rate: neutrophils from young volunteers
# Procedure: The effect of ectoine on the apoptosis was investigated by way of human neutrophils. Neutrophils from young, healthy donors (3 male and 2 female) were isolated and treated with the amounts of ectoine (mM) indicated. Treatment was carried out with ectoine alone (open columns) and with 33 μg/ml of CNP (black columns). Ectoine was not administered in the control group (C).
# The apoptotic cells were quantified in the following manner: The neutrophils were suspended in 300 μl of hypotonic solution containing propidium iodide (PI). The fluorescence of PI was determined by means of flow cytometry (FACScan cytometer, BD Biosciences). The results are shown as percentage of hypodiploidal DNA (sub-G1), corresponding to fragmented DNA which is characteristic of apoptotic cells.
# The effect of ectoine on the apoptosis was investigated by way of human neutrophils. Neutrophils of young, healthy donors (3 male and 2 female) were isolated and pretreated for 2 hours with PBS (dark columns) and with 1 mM of ectoine (light columns). Subsequently, treatment took place with 33 μg/ml of carbon nanoparticles (ufCB: ultrafine carbon black), 300 nM LTB4, 20 ng/ml GM CSF or 1 μM of dexamethasone, respectively no treatment with proinflammatory factors. (†: significant difference with respect to control group; *: significant difference with respect to neutrophils treated with proinflammatory factors and PBS only; quantification of the apoptotic cells analogous to Experiment 2).
# The neutrophil granulocytes were pretreated for 2 hours with 1 mM of ectoine resp. PBS following which treatment took place for 16 hours with 33 μg/ml CNP, 300 nM LTB4, 20 ng/ml GMCSF or PBS. […] (dark columns: pretreatment with ectoine; light columns: pretreatment with PBS; *: significant difference with respect to control group without CNP or inflammation mediators; §: significant difference with respect to the treatment without ectoine; quantification of the apoptotic cells analogously to Experiment 2).
# For Experiments 5 to 7 neutrophil granulocytes were obtained from blood samples. Groups 1 and 2 consisted of persons who participated in a current patient study. Male patients (aged 40 to 80 years) with stable COPD history (GOLD III/IV) and healthy control patients from an identical age group.
# The influence of ectoine in combination with the corticosteroid budesonide on the apoptosis rates of neutrophils is illustrated in FIG. 5. Sub-G1-cells were measured after propidium iodide coloration (FACS-flow cytometry). Cells: primary, peripheral neutrophils. Isolation of the neutrophils by Percoll® centrifugation. Cultivation of 2×10^6 neutrophils in the presence of 33 μg/ml CNP, 300 nM LTB4, 20 ng/ml GM-CSF, 1 μM budesonide, 1 mM ectoine and combinations thereof for 16 h. FIG. 5 A: cells cumulated from all samples (n=15), FIG. 5 B: cells from COPD patients (n=5), FIG. 5 C: cells from healthy age control group (n=5), FIG. 5 D: cells from young volunteers (n=5).
# Sub-G1-cells were measured after propidium iodide coloration (FACS-flow cytometry). Cells: primary, peripheral, human neutrophils. Isolation of the neutrophils by Percoll® centrifugation and cultivation of 2×10^6 neutrophils in the presence of 33 μg/ml CNP, 1 μM budesonide, 1 mM ectoine, 1 mM urea, 1 mM ectoine amide and combinations thereof for 16 h. The cells were obtained from young volunteers (group 3), n=5, bud=budenoside. Two additional test substances (urea and the ectoine amide of 2-hydroxy-5-aminobenzoic acid) were examined to check whether they were capable of inhibiting anti-apoptotic effects on neutrophils.
# [2] = tested on: protein kinase B (Akt); assay: Akt phosphorylation in human primary peripheral neutrophils (western blot); type: cell-based; details: Experiment 6; 1 mM ectoine with 1 μM budesonide, also in the presence of 33 μg/ml CNP, 6 h
# Procedure: (§1) The influence of ectoine in combination with budenoside on anti-apoptotic signals can be seen from FIG. 6. With selected samples of neutrophils relevant signals were detected via protein kinase B (Akt) and Mcl-1 by measurement of the Akt phosphorylation and the Mcl-1 protein level, with human primary peripheral neutrophils being used as cells. Isolation of the neutrophils by Percoll® centrifugation, the cultivation of 2×10^6 neutrophils in the presence of 33 μg/ml CNP, 1 μM budesonide, 1 mM ectoine and combinations thereof for 6 h. A protein isolation, western blot, luminescence on x-ray films was effected of material from each 3 COPD patients and 3 persons from the corresponding age control group.
# [3] = tested on: Mcl-1; assay: Mcl-1 protein level in human primary peripheral neutrophils (western blot); type: cell-based; details: Experiment 6; 1 mM ectoine with 1 μM budesonide, also in the presence of 33 μg/ml CNP, 6 h
# Procedure: as §1
# [4] = tested on: neutrophils; assay: Neutrophil inflammation reactions in rats with carbon nanoparticles intratracheally administered; type: in vivo
# From the text: Neutrophil inflammation reactions were examined in rats with carbon nanoparticles intratracheally administered. This involved administration both with and without ectoine. […] In the first place, the liberation of cinc-1 is initially due to epithelial cells and macrophages, whereas later on the liberation caused by the great amount of ultimately existing neutrophils dominates.
# It thus follows that ectoine cannot only be used on a preemptive basis but also for the treatment of an already existing inflammation.
# Carbon nanoparticles (CNP, 14 nm, Printex 90, Degussa, Frankfurt, Germany) were suspended in a phosphate buffered salt solution (PBS) by means of ultra-sonic treatment. Similarly, a 0.1 and a 1 mM solution of ectoine was produced in PBS. 0.4 ml of the CNP particle suspension was administered intratracheally to Fisher 344 female rats. Treatment with 0.4 ml of the ectoine solutions, respectively PBS took place after one and two days. The rats were sacrificed on the third day, their lungs purged with 4×5 ml of PBS each. The cells of the individual animals were suspended in 1 ml of PBS and centrifuged. The pellets were washed with PBS once and resuspended in 300 μl of hypotonic solution (0.1% sodium citrate, 0.1% triton×100) containing 50 μg/ml of propidium iodide (PI). To determine the rate of apoptosis a fluorescence measurement was finally performed.
# [5] = ectoine administered repeatedly after inflammation reaction triggered off several times
SMILES,"prevention of the reduction of the apoptosis rate caused by CNP with or without budenoside ([1]; 33 μg/ml CNP, 1 μM budesonide)",background apoptosis rate [1],effectiveness compared with ectoine ([1]; cf. FIG. 7),"reduction of the apoptosis rate caused by CNP ([1]; Experiment 2, neutrophils from young healthy donors, 33 μg/ml CNP, significant amounts of ectoine)","apoptosis rate reduced by inflammatory stimulants ([1]; Experiment 4, COPD and non-COPD patients, 2 h pretreatment 1 mM ectoine, then 16 h 33 μg/ml CNP, 300 nM LTB4 or 20 ng/ml GMCSF)","anti-apoptotic effect of proinflammatory substances combined with budesonide, with ectoine ([1]; Experiment 5, CNP, LTB4, GM-CSF combined with 1 μM budesonide, 1 mM ectoine)","anti-apoptotic effect of budesonide, with ectoine ([1]; Experiment 5, pretreatment 1 mM ectoine, 1 μM budesonide, no proinflammatory substances, all groups)","compensation of the reduction of the apoptosis rate due to pro-inflammatory factors ([1]; isolated human neutrophil granulocytes, CNP, LTB4 or GM-CSF)","apoptosis rate, ectoine alone ([1]; neutrophils without previous treatment with pro-inflammatory factors)","Akt phosphorylation, ectoine against budesonide effect [2]","Mcl-1 protein level, ectoine against budesonide effect [3]","amount of neutrophils [4, 5]","cinc-1 level [4, 5]","liberation of cinc-1 ([4]; rats, carbon nanoparticles intratracheally with ectoine, after two days)","amount of neutrophils ([4]; rats, carbon nanoparticles intratracheally with ectoine, after two days, in comparison to the placebo group)","effect of ectoine given after commencement of the inflammatory reaction ([4]; two doses, one and two days after commencement of the inflammatory reaction)"
"CC1=NCCC(C(=O)Nc2ccc(O)c(C(=O)O)c2)N1 (stereo not drawn) [2-methyl-1,4,5,6-tetrahydropyrimidine-4-carboxylic acid amide of 2-hydroxy-5-aminobenzoic acid]",able to prevent the reduction of the apoptosis rate,did not have an influence on the background apoptosis rate,effectiveness comparable to ectoine itself,,,,,,,,,,,,,
"CC1=NCC[C@@H](C(=O)O)N1 [ectoine, (S)-2-methyl-1,4,5,6-tetrahydropyrimidine-4-carboxylic acid]",,,,could virtually be eliminated,resulted in the apoptosis rate to be restored significantly,the anti-apoptotic effect was successfully prevented,obviates the anti-apoptotic effect of the budesonide significantly,can be compensated depending on concentration at least partially,did not result in an increase of the apoptosis rate,capable of counteracting this effect,capable of counteracting this effect,diminishing of the amount of neutrophils,lowering of the cinc-1 level,reduction of the liberation of cinc-1,significant reduction of the amount of neutrophils,virtually had the same effect as an ectoine administration at the time the inflammatory reaction was triggered
"NC(N)=O [urea, reference compound]",this could not be achieved,did not have an influence on the background apoptosis rate,,,,,,,,,,,,,,
